pIC50: −log10 of the molar value.
The molecules below were run against T1, recombinant human GST-SYK (Homo sapiens, UniProt P43405) (assay: Homogeneous Time-Resolved Fluorescence (HTRF) assay for the recombinant human Syk enzyme). Settings: HTRF assay, recombinant human GST-SYK; IC50 given as class symbols; read-out: rhSYK Activity.
T1 construct: purchased Carna Biosciences 08-176
Type: biochemical
Procedure, shortened: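 Phosphorylation of a biotinylated Syk substrate peptide (250 nM) was run for 45 min at room temperature with 25 μM ATP and 5 mM Mg. It followed a 10-min preincubation of GST-hSYK ([…]) with compound in 15 mM Tris-HCl pH 7.5, 2 mM DTT. Product was detected by time-resolved fluorescence using a europium anti-phosphotyrosine antibody plus SA-APC in EDTA-containing quench buffer.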

pIC50 | SMILES
> 7.00 | Cc1cc(Nc2nccc(C(F)(F)F)n2)cc(-c2ccc(NCCC(N)=O)nc2)c1 [Example 7.43, N~3~-[5-(3-methyl-5-{[4-(trifluoromethyl)pyrimidin-2-yl]amino}phenyl)pyridin-2-yl]-beta-alaninamide]
> 7.00 | Cc1cc(Nc2nccc(C(F)(F)F)n2)cc(-c2ccc(NCC(C)(C)O)nc2)c1 [Example 7.44, 2-methyl-1-{[5-(3-methyl-5-{[4-(trifluoromethyl)pyrimidin-2-yl]amino}phenyl)pyridin-2-yl]amino}propan-2-ol]
6.00 to 7.00 | CC(=O)N1CCN(c2ccc(-c3cc(C)cc(Nc4nccc(C(F)(F)F)n4)c3)cn2)CC1 [Example 7.45, N-{3-[6-(4-acetylpiperazin-1-yl)pyridin-3-yl]-5-methylphenyl}-4-(trifluoromethyl)pyrimidin-2-amine]
> 7.00 | Cc1cc(Nc2nccc(C(F)(F)F)n2)cc(-c2ccc(N3CCN(C)CC3)nc2)c1 [Example 7.46, N-{3-methyl-5-[6-(4-methylpiperazin-1-yl)pyridin-3-yl]phenyl}-4-(trifluoromethyl)pyrimidin-2-amine]
> 7.00 | Cc1cc(Nc2nccc(C(F)(F)F)n2)cc(-c2ccc(NC3COC3)nc2)c1 [Example 7.47, N-{3-methyl-5-[6-(oxetan-3-ylamino)pyridin-3-yl]phenyl}-4-(trifluoromethyl)pyrimidin-2-amine]
6.00 to 7.00 | Cc1cc(Nc2nccc(C(F)(F)F)n2)cc(-c2ccc(N3CCN(S(C)(=O)=O)CC3)nc2)c1 [Example 7.48, N-(3-methyl-5-{6-[4-(methylsulfonyl)piperazin-1-yl]pyridin-3-yl}phenyl)-4-(trifluoromethyl)pyrimidin-2-amine]
6.00 to 7.00 | CCN1CCN(c2ccc(-c3cc(C)cc(Nc4nccc(C(F)(F)F)n4)c3)cn2)CC1 [Example 7.49, N-{3-[6-(4-ethylpiperazin-1-yl)pyridin-3-yl]-5-methylphenyl}-4-(trifluoromethyl)pyrimidin-2-amine]
> 7.00 | CC(=O)NCCN(C)c1ccc(-c2cc(C)cc(Nc3nccc(C(F)(F)F)n3)c2)cn1 [Example 7.50, N-(2-{methyl[5-(3-methyl-5-{[4-(trifluoromethyl)pyrimidin-2-yl]amino}phenyl)pyridin-2-yl]amino}ethyl)acetamide]
> 7.00 | Cc1cc(Nc2nccc(C(F)(F)F)n2)cc(-c2ccc(N[C@@H]3CCC(=O)NC3)nc2)c1 [Example 7.51, (5R)-5-{[5-(3-methyl-5-{[4-(trifluoromethyl)pyrimidin-2-yl]amino}phenyl)pyridin-2-yl]amino}piperidin-2-one]
> 7.00 | Cc1cc(Nc2nccc(C(F)(F)F)n2)cc(-c2ccc(N[C@H]3CCC(=O)NC3)nc2)c1 [Example 7.52, (5S)-5-{[5-(3-methyl-5-{[4-(trifluoromethyl)pyrimidin-2-yl]amino}phenyl)pyridin-2-yl]amino}piperidin-2-one]
6.00 to 7.00 | Cc1cc(Nc2nccc(C(F)(F)F)n2)cc(-c2ccc(N3CCCC(F)(F)C3)nc2)c1 [Example 7.53, N-{3-[6-(3,3-difluoropiperidin-1-yl)pyridin-3-yl]-5-methylphenyl}-4-(trifluoromethyl)pyrimidin-2-amine]
6.00 to 7.00 | COCC1CCCN1c1ccc(-c2cc(C)cc(Nc3nccc(C(F)(F)F)n3)c2)cn1 (centres unmarked) [Example 7.54, N-(3-{6-[2-(methoxymethyl)pyrrolidin-1-yl]pyridin-3-yl}-5-methylphenyl)-4-(trifluoromethyl)pyrimidin-2-amine]
> 7.00 | Cc1cc(Nc2nccc(C(F)(F)F)n2)cc(-c2ccc(N3CCN(C)C(=O)C3C)nc2)c1 (centres unmarked) [Example 7.55, 1,3-dimethyl-4-[5-(3-methyl-5-{[4-(trifluoromethyl)pyrimidin-2-yl]amino}phenyl)pyridin-2-yl]piperazin-2-one]
6.00 to 7.00 | Cc1cc(Nc2nccc(C(F)(F)F)n2)cc(-c2ccc(N3CCC(F)(F)CC3)nc2)c1 [Example 7.56, N-{3-[6-(4,4-difluoropiperidin-1-yl)pyridin-3-yl]-5-methylphenyl}-4-(trifluoromethyl)pyrimidin-2-amine]
> 7.00 | Cc1cc(Nc2nccc(C(F)(F)F)n2)cc(-c2ccc(N3CCC[C@H]3C(N)=O)nc2)c1 [Example 7.57, 1-[5-(3-methyl-5-{[4-(trifluoromethyl)pyrimidin-2-yl]amino}phenyl)pyridin-2-yl]-L-prolinamide]
> 7.00 | Cc1cc(Nc2nccc(C(F)(F)F)n2)cc(-c2ccc(N3CC(C)NC(C)C3)nc2)c1 (centres unmarked) [Example 7.58, N-{3-[6-(3,5-dimethylpiperazin-1-yl)pyridin-3-yl]-5-methylphenyl}-4-(trifluoromethyl)pyrimidin-2-amine]
> 7.00 | CC(=O)N1CCCN(c2ccc(-c3cc(C)cc(Nc4nccc(C(F)(F)F)n4)c3)cn2)CC1 [Example 7.59, N-{3-[6-(4-acetyl-1,4-diazepan-1-yl)pyridin-3-yl]-5-methylphenyl}-4-(trifluoromethyl)pyrimidin-2-amine]

pIC50 | SMILES
6.00 to 7.00 | CCCN1CCCN(c2ccc(-c3cc(C)cc(Nc4nccc(C(F)(F)F)n4)c3)cn2)CC1 [Example 7.60, N-{3-methyl-5-[6-(4-propyl-1,4-diazepan-1-yl)pyridin-3-yl]phenyl}-4-(trifluoromethyl)pyrimidin-2-amine]
6.00 to 7.00 | COCC1CCN(c2ccc(-c3cc(C)cc(Nc4nccc(C(F)(F)F)n4)c3)cn2)C1 (centres unmarked) [Example 7.61, N-(3-{6-[3-(methoxymethyl)pyrrolidin-1-yl]pyridin-3-yl}-5-methylphenyl)-4-(trifluoromethyl)pyrimidin-2-amine]
> 7.00 | CNC(=O)CCNc1ccc(-c2cc(C)cc(Nc3nccc(C(F)(F)F)n3)c2)cn1 [Example 7.62, N-methyl-N~3~-[5-(3-methyl-5-{[4-(trifluoromethyl)pyrimidin-2-yl]amino}phenyl)pyridin-2-yl]-beta-alaninamide]
6.00 to 7.00 | CCCOC1CCCN(c2ccc(-c3cc(C)cc(Nc4nccc(C(F)(F)F)n4)c3)cn2)C1 (centres unmarked) [Example 7.63, N-{3-methyl-5-[6-(3-propoxypiperidin-1-yl)pyridin-3-yl]phenyl}-4-(trifluoromethyl)pyrimidin-2-amine]
> 7.00 | CC(=O)NCCCNc1ccc(-c2cc(C)cc(Nc3nccc(C(F)(F)F)n3)c2)cn1 [Example 7.64, N-(3-{[5-(3-methyl-5-{[4-(trifluoromethyl)pyrimidin-2-yl]amino}phenyl)pyridin-2-yl]amino}propyl)acetamide]
6.00 to 7.00 | CNC(=O)C1CCCN1c1ccc(-c2cc(C)cc(Nc3nccc(C(F)(F)F)n3)c2)cn1 (centres unmarked) [Example 7.65, N-methyl-1-[5-(3-methyl-5-{[4-(trifluoromethyl)pyrimidin-2-yl]amino}phenyl)pyridin-2-yl)prolinamide]
> 7.00 | Cc1cc(Nc2nccc(C(F)(F)F)n2)cc(-c2ccc(NCC(=O)N(C)C)nc2)c1 [Example 7.66, N,N-dimethyl-N~2~-[5-(3-methyl-5-{[4-(trifluoromethyl)pyrimidin-2-yl]amino}phenyl)pyridin-2-yl]glycinamide]
> 7.00 | Cc1cc(Nc2nccc(C(F)(F)F)n2)cc(-c2ccc(N3CCNC(=O)C3)nc2)c1 [Example 7.67, 4-[5-(3-methyl-5-{[4-(trifluoromethyl)pyrimidin-2-yl]amino}phenyl)pyridin-2-yl]piperazin-2-one]
> 7.00 | Cc1cc(Nc2nccc(C(F)(F)F)n2)cc(-c2ccc(NC3CCNC3=O)nc2)c1 (centres unmarked) [Example 7.68, 3-{[5-(3-methyl-5-{[4-(trifluoromethyl)pyrimidin-2-yl]amino}phenyl)pyridin-2-yl]amino}pyrrolidin-2-one]
> 7.00 | Cc1cc(Nc2nccc(C(F)(F)F)n2)cc(-c2ccc(NC(CO)C(=O)O)nc2)c1 (centres unmarked) [Example 7.69, N-[5-(3-methyl-5-{[4-(trifluoromethyl)pyrimidin-2-yl]amino}phenyl)pyridin-2-yl]serine]
> 7.00 | Cc1cc(Nc2nccc(C(F)(F)F)n2)cc(-c2ccc(N[C@H](CC(C)C)C(=O)O)nc2)c1 [Example 7.70, N-[5-(3-methyl-5-{[4-(trifluoromethyl)pyrimidin-2-yl]amino}phenyl)pyridin-2-yl]-D-leucine]
> 7.00 | Cc1cc(Nc2nccc(C(F)(F)F)n2)cc(-c2ccc(N[C@@H](CCO)C(=O)O)nc2)c1 [Example 7.71, N-[5-(3-methyl-5-{[4-(trifluoromethyl)pyrimidin-2-yl]amino}phenyl)pyridin-2-yl]-L-homoserine]
> 7.00 | Cc1cc(Nc2nccc(C(F)(F)F)n2)cc(-c2ccc(NC3(C(=O)O)CCNCC3)nc2)c1 [Example 7.72, 4-{[5-(3-methyl-5-{[4-(trifluoromethyl)pyrimidin-2-yl]amino}phenyl)pyridin-2-yl]amino}piperidine-4-carboxylic acid]
> 7.00 | Cc1cc(Nc2nccc(C(F)(F)F)n2)cc(-c2ccc(N[C@H](Cc3c[nH]cn3)C(=O)O)nc2)c1 [Example 7.73, N-[5-(3-methyl-5-{[4-(trifluoromethyl)pyrimidin-2-yl]amino}phenyl)pyridin-2-yl]-D-histidine]
> 7.00 | Cc1cc(Nc2nccc(C(F)(F)F)n2)cc(-c2ccc(N[C@@H](CCS(C)(=O)=O)C(=O)O)nc2)c1 [Example 7.74, (2S)-4-(methylsulfonyl)-2-{[5-(3-methyl-5-{[4-(trifluoromethyl)pyrimidin-2-yl]amino}phenyl)pyridin-2-yl]amino}butanoic acid]
> 7.00 | Cc1cc(Nc2nccc(C(F)(F)F)n2)cc(-c2ccc(N(CCC#N)CC(=O)O)nc2)c1 [Example 7.75, N-(2-cyanoethyl)-N-[5-(3-methyl-5-{[4-(trifluoromethyl)pyrimidin-2-yl]amino}phenyl)pyridin-2-yl]glycine]
> 7.00 | COCC(Nc1ccc(-c2cc(C)cc(Nc3nccc(C(F)(F)F)n3)c2)cn1)C(=O)O (centres unmarked) [Example 7.76, O-methyl-N-[5-(3-methyl-5-{[4-(trifluoromethyl)pyrimidin-2-yl]amino}phenyl)pyridin-2-yl]serine]

Same assay, conditions: recombinant GST-hSYK, 25 μM ATP, HTRF; read-out: IC50 (inhibition of human Syk activity)

pIC50 | SMILES
6.15 | CCCOC1CCCN(c2ccc(-c3cc(C)cc(Nc4nccc(C(F)(F)F)n4)c3)cn2)C1 (centres unmarked) [Example 7.63, N-{3-methyl-5-[6-(3-propoxypiperidin-1-yl)pyridin-3-yl]phenyl}-4-(trifluoromethyl)pyrimidin-2-amine]

— patent US9376418B2, “Substituted pyridine spleen tyrosine kinase (SYK) inhibitors” (Merck Sharp & Dohme Corp., priority 2012, dated 2016)
